Data as given in patent US20070105782A1, “Protectant Combinations for Reducing Toxicities” (BOARD OF TRUSTEES OF SOUTHERN ILLINOIS UNIVERSITY, priority 2005, published 2007).

Legend:
[1] = cited from earlier work
male Wistar rats = details: pretreated 30 minutes prior to CDDP infusion
Method: Complete data sets are obtained for five groups of five male Wistar rats (280-421 g). All animals are anesthetized with 1 ml/mg IM of Rompun cocktail (a solution containing 86.21 mg/ml ketamine and 2.76 mg/ml xylazine) prior to all injections and testing. Anesthesia is supplemented as needed with half doses throughout testing. The five groups include: a treated control group which received a dose of CDDP dissolved in normal sterile saline (1 mg of CDDP/ml normal saline; solution pH 6.3) administered by i.p. infusion with a Harvard Apparatus Infusion Pump, over a 30 minute period, an untreated control group that received an equivalent volume of normal saline (pH 6.5) instead of CDDP, and three experimental groups that receive various doses of protectant combination (comprising two or more of methionine protectant agents, carnitine, N-acetylcysteine, magnesium ions, lipoic acid, ebselen, glutathione, and glutathione ester) within the ranges described below dissolved in 3-5 ml of normal saline (solution pH 6.6) delivered by slow (over 1-2 minutes) i.p. injection 30 minutes prior to the same CDDP infusion as the treated control group. Both CDDP (purchased from Sigma Chemical Co., St. Louis) and the protectant combinations are freshly prepared before each experiment.

In the case of CSCC[C@@H](N)C(=O)O [D-methionine], the “excreted without conversion to the L-isomer” value ([1]; humans, except in L-methionine deprivation) is given as 60-70%, the “plasma levels compared with L-methionine” value ([1]; in the human) is given as “higher plasma levels than L-methionine” and the “survival until the end of the study period” value (male Wistar rats) is given as “all of the animals in each of these groups are expected to survive”.
